The values that follow are results of earlier work, collected in US6534540B2, “Combination and method of treatment of cancer utilizing a COX-2 inhibitor and a 3-hydroxy-3-methylglutaryl-coenzyme-a (HMG-CoA) reductase inhibitor” (priority 2000, dated 2003).

The subject of data set [1] is Prostate Cancer Cell Line LNCaP.
A further data set deals with prostate cancer specimen. The conditions noted are these: mice, prostate cancer specimen in vivo.
In the next data set the target is T1, COX-2 (Mus musculus, UniProt Q05769).
T1 sequence (Q05769 18-604): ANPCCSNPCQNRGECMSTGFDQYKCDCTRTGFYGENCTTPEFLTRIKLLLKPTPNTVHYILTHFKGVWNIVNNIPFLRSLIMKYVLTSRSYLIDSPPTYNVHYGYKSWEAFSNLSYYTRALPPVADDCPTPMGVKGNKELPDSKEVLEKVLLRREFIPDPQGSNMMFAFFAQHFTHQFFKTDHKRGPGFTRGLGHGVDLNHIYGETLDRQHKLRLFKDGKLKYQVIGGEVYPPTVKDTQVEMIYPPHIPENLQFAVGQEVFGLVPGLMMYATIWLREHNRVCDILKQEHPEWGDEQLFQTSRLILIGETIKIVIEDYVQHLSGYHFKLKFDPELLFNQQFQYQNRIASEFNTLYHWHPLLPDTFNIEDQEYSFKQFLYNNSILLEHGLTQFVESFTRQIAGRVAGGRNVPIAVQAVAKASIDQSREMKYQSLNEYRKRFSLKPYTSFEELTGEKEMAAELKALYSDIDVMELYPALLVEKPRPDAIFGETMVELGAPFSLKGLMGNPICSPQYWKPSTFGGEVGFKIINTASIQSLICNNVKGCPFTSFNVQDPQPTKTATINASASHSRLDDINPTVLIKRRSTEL
Particulars: in vivo.

Take `CC[C@H](C)C(=O)O[C@H]1C[C@@H](C)C=C2C=C[C@H](C)[C@H](CC[C@@H]3C[C@@H](O)CC(=O)O3)[C@H]21` [lovastatin]: in data set [1], the “therapeutic value in prostate cancer” value is “had therapeutic value in treating prostate cancer”.
As to `CS(=O)(=O)Nc1ccc([N+](=O)[O-])cc1OC1CCCCC1` [NS398], in the data set with prostate cancer specimen, the angiogenesis entry was “inhibit angiogenesis”.
Consider `COc1cc(C2Oc3cc([C@H]4Oc5cc(O)cc(O)c5C(=O)[C@@H]4O)ccc3OC2CO)ccc1O` (stereo partly drawn) [silybinin], for which, at COX-2, the “COX-2 inhibition relative to COX-1 inhibition” value is listed as “significant COX-2 inhibition relative to COX-1 inhibition”.
